{"source": "paper PMC7854383", "about": "“Cellular Uptake of Psychostimulants – Are High- and Low-Affinity Organic Cation Transporters Drug Traffickers?” (Frontiers in Pharmacology, 2021)", "key": {"[1]": {"biological_target": "T1, OCT2 (Homo sapiens, UniProt O15244)", "T1 sequence (O15244 1-555 S270A)": "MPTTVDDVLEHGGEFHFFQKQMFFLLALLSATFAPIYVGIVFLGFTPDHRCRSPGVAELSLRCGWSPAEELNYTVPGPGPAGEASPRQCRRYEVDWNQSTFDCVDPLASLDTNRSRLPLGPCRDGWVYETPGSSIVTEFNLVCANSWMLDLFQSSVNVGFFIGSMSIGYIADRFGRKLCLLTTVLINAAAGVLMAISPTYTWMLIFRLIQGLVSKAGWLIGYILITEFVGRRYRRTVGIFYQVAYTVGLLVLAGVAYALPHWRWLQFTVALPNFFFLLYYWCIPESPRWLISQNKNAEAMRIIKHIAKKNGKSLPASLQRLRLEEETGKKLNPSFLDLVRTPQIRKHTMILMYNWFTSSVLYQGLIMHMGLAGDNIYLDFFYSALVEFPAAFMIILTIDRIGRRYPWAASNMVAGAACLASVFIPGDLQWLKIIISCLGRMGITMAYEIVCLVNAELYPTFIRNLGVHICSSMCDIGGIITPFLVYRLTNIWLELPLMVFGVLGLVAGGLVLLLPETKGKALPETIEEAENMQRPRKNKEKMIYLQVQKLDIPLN", "experiment": "Screening of cellular uptake at 1 µM, OCT2-overexpressing HEK293 cells over empty vector control cells", "settings": "2 min", "excerpt": "(§1) Koepsell and Gorbulev (University of Würzburg, Germany).\n(§2) Eighteen psychostimulants and hallucinogens were initially screened for their potential to be substrates for different polyspecific OCTs and high-affinity monoamine neurotransmitter transporters (Figure 3), as well as for the efflux transporter MATE2-K (Supplementary Figure S1)."}, "[2]": {"settings": "four healthy volunteers; ref Toennes and Kauert, 2002; www.dosing.de and www.drugbank.ca; cited from earlier work"}, "[3]": {"biological_target": "T2, DAT (Homo sapiens, UniProt Q01959)", "T2 sequence (Q01959 whole entry)": "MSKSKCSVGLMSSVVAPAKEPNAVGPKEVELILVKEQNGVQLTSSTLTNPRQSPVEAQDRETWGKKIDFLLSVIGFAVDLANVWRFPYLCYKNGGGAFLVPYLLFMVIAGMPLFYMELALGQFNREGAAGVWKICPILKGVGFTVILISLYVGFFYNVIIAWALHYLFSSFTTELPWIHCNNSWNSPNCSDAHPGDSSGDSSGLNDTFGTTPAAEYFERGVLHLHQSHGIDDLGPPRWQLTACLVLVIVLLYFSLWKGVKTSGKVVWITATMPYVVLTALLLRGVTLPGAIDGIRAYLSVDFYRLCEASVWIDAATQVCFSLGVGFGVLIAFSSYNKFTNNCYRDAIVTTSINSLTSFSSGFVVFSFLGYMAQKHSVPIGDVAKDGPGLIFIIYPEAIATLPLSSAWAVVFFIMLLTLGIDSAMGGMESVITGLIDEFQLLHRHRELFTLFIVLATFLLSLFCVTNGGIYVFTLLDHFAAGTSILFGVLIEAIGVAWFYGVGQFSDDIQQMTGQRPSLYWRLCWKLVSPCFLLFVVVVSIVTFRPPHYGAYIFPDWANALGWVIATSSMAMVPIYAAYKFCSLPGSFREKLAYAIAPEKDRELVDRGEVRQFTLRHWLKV", "experiment": "Concentration-dependent transport by DAT in HEK293 cells", "settings": "DAT versus NET"}, "[4]": {"biological_target": "T3, wild-type OCT2 (Homo sapiens, UniProt O15244)", "T3 sequence (O15244 1-555 S270A)": "T1 sequence (O15244 1-555 S270A)", "experiment": "Concentration-dependent transport by wild-type OCT2 in HEK293 cells"}, "[5]": {"biological_target": "T4, OCT2 variant A270S (Homo sapiens, UniProt O15244)", "T4 sequence (O15244 1-555)": "T1 sequence (O15244 1-555 S270A) with A270S", "experiment": "Concentration-dependent transport by OCT2 variant A270S in HEK293 cells"}, "[6]": {"biological_target": "NET (Homo sapiens, UniProt P23975)", "sequence (P23975 whole entry)": "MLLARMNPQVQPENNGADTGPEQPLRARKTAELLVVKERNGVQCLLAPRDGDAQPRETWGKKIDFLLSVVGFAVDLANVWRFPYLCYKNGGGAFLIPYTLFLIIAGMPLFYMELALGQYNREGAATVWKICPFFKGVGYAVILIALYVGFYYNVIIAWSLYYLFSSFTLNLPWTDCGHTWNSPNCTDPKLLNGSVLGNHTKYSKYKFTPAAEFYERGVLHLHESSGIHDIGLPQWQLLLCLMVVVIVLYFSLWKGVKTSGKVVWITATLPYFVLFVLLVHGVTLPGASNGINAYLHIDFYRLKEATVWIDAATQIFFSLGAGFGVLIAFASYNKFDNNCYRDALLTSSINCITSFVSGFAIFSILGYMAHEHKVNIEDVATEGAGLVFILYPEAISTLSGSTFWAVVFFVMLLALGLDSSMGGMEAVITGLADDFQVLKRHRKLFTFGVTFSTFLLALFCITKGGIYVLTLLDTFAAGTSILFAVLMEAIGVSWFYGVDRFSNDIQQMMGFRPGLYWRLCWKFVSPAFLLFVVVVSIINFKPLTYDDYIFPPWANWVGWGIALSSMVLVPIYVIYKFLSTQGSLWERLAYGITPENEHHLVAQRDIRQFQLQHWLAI", "experiment": "Screening of cellular uptake at 1 µM, NET-overexpressing HEK293 cells over empty vector control cells", "settings": "2 min", "method": "(§3) The HEK293 cells were cultered in DMEM medium supplemented with 10% (v/v) fetal bovine serum as well as penicillin (100 U/ml) and streptomycin (100 μg/ml) obtained from Thermo Fisher Scientific (Darmstadt, Germany). Cells were seeded on 12-well plates coated with poly-D-lysine (Sigma-Aldrich, Taufkirchen, Germany) 48 h before the transport experiments and incubated at 37°C, 95% relative humidity, and 5% CO2. […] All cell lines were washed with 37°C HBSS+ and subsequently incubated with the pre-warmed substrate in HBSS+ at 37°C. The time points for measuring substrate uptake were 1 min for MATE2-K and 2 min for the other SLCs. […] The reaction was stopped by adding ice-cold HBSS+, and the cells were washed twice with ice-cold HBSS+ before lysis with 80% acetonitrile (LGC Standards, Wesel, Germany) including an internal standard. Subsequently, the intracellular substrate accumulation was determined using LC-MS/MS.\n(§4) Intracellular accumulation was measured by HPLC-MS/MS using a Shimadzu Nexera HPLC system with a LC-30AD pump, a SIL-30AC autosampler, a CTO-20AC column oven, and a CBM-20A controller (Shimadzu, Kyoto, Japan). […] Peak integration and quantification of the analytes was done using the Analyst software (Version 1.6.2, AB SCIEX, Darmstadt, Germany) and determined by simultaneous measurement of standard curves with known concentrations."}, "[7]": {"biological_target": "T2, DAT", "experiment": "Screening of cellular uptake at 1 µM, DAT-overexpressing HEK293 cells over empty vector control cells", "settings": "2 min", "method": "as §3, §4"}, "[8]": {"biological_target": "T5, OCT1 (Homo sapiens, UniProt O15245)", "T5 sequence (O15245 1-554)": "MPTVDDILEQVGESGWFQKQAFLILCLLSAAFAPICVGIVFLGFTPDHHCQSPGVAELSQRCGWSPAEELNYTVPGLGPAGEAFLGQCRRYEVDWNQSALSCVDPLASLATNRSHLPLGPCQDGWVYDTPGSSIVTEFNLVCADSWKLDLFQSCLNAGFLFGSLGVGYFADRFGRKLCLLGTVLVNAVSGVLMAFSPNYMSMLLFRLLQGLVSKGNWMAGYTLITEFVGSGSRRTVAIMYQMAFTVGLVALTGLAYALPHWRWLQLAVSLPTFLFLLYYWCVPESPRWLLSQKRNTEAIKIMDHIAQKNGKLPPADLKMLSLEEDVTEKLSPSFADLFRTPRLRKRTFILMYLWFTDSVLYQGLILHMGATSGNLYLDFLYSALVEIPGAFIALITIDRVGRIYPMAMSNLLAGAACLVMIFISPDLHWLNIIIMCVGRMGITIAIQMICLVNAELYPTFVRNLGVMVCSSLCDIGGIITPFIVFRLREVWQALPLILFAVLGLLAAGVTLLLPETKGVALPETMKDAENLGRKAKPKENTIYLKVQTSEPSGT", "experiment": "Inhibition of mescaline uptake by OCT1", "format": "in vitro ADME", "set-up": "expressed in transfected cells", "settings": "1 mM MPP^+; compared with empty vector-transfected cells"}, "[9]": {"biological_target": "T5, OCT1", "experiment": "Screening of cellular uptake at 1 µM, OCT1-overexpressing HEK293 cells over empty vector control cells", "settings": "2 min", "excerpt": "as §1, §2"}, "[10]": {"biological_target": "T6, OCT3 (Homo sapiens, UniProt O75751)", "T6 construct": "Koepsell and Gorbulev (University of Würzburg); host or cells: HEK293", "T6 sequence (O75751 1-556)": "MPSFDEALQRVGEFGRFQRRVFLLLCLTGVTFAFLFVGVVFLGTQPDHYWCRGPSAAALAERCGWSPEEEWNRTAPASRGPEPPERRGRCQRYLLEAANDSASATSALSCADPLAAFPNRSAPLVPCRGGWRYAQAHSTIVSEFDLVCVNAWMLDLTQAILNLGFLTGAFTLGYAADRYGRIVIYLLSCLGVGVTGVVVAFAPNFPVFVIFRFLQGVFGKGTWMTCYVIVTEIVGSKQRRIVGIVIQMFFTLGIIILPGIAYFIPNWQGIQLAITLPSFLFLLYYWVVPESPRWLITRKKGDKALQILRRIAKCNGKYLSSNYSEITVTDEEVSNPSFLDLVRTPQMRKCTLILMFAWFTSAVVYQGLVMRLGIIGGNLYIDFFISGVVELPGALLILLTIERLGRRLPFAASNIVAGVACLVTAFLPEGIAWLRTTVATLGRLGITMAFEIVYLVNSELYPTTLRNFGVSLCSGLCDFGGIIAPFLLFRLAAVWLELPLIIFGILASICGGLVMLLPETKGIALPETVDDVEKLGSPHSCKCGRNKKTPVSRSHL", "experiment": "Screening of cellular uptake at 1 µM, OCT3-overexpressing HEK293 cells over empty vector control cells", "format": "in vitro ADME", "settings": "2 min", "excerpt": "as §1, §2"}, "[11]": {"biological_target": "T7, MATE2-K (Homo sapiens, UniProt Q86VL8)", "T7 construct": "expressed in transfected cells", "T7 sequence (Q86VL8 1-566 isoform Q86VL8-3)": "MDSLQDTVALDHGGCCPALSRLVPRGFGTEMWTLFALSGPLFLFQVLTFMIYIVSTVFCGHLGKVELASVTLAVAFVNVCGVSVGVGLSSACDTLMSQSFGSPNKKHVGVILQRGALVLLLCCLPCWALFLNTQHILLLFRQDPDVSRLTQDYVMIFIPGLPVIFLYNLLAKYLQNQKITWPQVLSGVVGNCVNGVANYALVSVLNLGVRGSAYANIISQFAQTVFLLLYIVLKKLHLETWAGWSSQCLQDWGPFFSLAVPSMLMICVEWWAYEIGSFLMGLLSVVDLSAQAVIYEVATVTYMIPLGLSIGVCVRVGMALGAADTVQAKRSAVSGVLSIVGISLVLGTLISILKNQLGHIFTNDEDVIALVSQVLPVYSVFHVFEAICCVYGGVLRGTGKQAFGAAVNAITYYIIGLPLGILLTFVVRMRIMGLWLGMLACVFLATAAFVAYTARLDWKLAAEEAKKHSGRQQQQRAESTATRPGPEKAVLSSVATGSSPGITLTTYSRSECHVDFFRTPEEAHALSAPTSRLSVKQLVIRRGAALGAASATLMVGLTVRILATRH", "experiment": "Screening of cellular uptake at 1 µM, MATE2-K-overexpressing HEK293 cells over empty vector control cells", "format": "in vitro ADME", "settings": "1 min", "excerpt": "as §1, §2"}, "[12]": {"biological_target": "SERT (Homo sapiens, UniProt P31645)", "sequence (P31645 whole entry)": "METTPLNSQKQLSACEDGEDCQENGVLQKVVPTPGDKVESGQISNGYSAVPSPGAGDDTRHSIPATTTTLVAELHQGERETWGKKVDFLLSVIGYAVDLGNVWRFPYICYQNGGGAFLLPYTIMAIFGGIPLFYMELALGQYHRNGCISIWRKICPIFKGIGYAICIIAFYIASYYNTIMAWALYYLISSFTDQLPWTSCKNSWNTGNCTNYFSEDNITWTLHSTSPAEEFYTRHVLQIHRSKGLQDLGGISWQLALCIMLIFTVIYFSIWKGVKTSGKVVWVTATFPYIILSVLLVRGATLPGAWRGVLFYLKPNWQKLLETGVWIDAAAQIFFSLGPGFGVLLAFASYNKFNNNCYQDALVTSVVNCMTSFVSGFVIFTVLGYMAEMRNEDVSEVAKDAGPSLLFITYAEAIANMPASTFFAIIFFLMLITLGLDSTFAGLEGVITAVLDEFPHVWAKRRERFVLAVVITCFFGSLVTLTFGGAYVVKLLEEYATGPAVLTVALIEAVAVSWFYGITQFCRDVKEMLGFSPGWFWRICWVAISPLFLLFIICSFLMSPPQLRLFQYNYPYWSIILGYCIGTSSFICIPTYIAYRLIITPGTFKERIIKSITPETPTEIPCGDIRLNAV", "experiment": "Screening of cellular uptake at 1 µM, SERT-overexpressing HEK293 cells over empty vector control cells", "format": "in vitro ADME", "settings": "2 min"}, "[13]": {"biological_target": "T8, OCT1*1 (WT) (Homo sapiens, UniProt O15245)", "T8 sequence (O15245 1-554)": "T5 sequence (O15245 1-554)", "settings": "net transport, 2 min", "method": "(§5) The cells were kept in culture for no more than 30 passages.\n(§6) The HEK293 cells were cultered in DMEM medium supplemented with 10% (v/v) fetal bovine serum as well as penicillin (100 U/ml) and streptomycin (100 μg/ml) obtained from Thermo Fisher Scientific (Darmstadt, Germany). Cells were seeded on 12-well plates coated with poly-D-lysine (Sigma-Aldrich, Taufkirchen, Germany) 48 h before the transport experiments and incubated at 37°C, 95% relative humidity, and 5% CO2. Cell lines overexpressing MATE2-K were incubated with 30 mM NH4Cl in HBSS+ (10 mM HEPES in HBSS, pH 7.4; Thermo Fisher Scientific, Darmstadt, Germany) for 30 min prior to the assay to invert the direction of transport. All cell lines were washed with 37°C HBSS+ and subsequently incubated with the pre-warmed substrate in HBSS+ at 37°C. […] Subsequently, the intracellular substrate accumulation was determined using LC-MS/MS.\n(§7) Intracellular accumulation was measured by HPLC-MS/MS using a Shimadzu Nexera HPLC system with a LC-30AD pump, a SIL-30AC autosampler, a CTO-20AC column oven, and a CBM-20A controller (Shimadzu, Kyoto, Japan). […] Peak integration and quantification of the analytes was done using the Analyst software (Version 1.6.2, AB SCIEX, Darmstadt, Germany) and determined by simultaneous measurement of standard curves with known concentrations. […]"}, "[14]": {"biological_target": "T9, OCT1*3 (R61C) (Homo sapiens, UniProt O15245, R61C)", "T9 sequence (O15245 1-554 R61C)": "T5 sequence (O15245 1-554) with R61C", "method": "as §5, §6, §7"}, "[15]": {"biological_target": "T10, OCT1*6 (M420del, C88R) (Homo sapiens, UniProt O15245, C88R/DEL420-420)", "T10 sequence (O15245 with tags, fused parts or gaps C88R/DEL420-420)": "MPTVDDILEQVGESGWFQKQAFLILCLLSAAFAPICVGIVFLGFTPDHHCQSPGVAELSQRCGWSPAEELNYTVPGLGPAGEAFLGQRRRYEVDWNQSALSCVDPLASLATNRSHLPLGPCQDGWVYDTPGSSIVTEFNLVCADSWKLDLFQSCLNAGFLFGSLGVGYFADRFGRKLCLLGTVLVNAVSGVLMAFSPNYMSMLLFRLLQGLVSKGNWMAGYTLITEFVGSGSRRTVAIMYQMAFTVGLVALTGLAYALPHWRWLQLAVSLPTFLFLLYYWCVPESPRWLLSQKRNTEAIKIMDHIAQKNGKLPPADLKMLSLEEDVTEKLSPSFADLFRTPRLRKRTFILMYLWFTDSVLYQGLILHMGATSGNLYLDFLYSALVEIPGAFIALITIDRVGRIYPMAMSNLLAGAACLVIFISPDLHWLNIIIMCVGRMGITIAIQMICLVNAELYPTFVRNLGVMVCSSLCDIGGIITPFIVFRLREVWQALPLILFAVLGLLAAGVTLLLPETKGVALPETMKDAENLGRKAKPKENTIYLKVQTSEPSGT", "method": "as §5\nThe HEK293 cells were cultered in DMEM medium supplemented with 10% (v/v) fetal bovine serum as well as penicillin (100 U/ml) and streptomycin (100 μg/ml) obtained from Thermo Fisher Scientific (Darmstadt, Germany). Cells were seeded on 12-well plates coated with poly-D-lysine (Sigma-Aldrich, Taufkirchen, Germany) 48 h before the transport experiments and incubated at 37°C, 95% relative humidity, and 5% CO2. Cell lines overexpressing MATE2-K were incubated with 30 mM NH4Cl in HBSS+ (10 mM HEPES in HBSS, pH 7.4; Thermo Fisher Scientific, Darmstadt, Germany) for 30 min prior to the assay to invert the direction of transport. All cell lines were washed with 37°C HBSS+ and subsequently incubated with the pre-warmed substrate in HBSS+ at 37°C. The time points for measuring substrate uptake were 1 min for MATE2-K and 2 min for the other SLCs. […] It was assumed to be linear for the other transporters as well, based on previous experience with these expression systems. […] Subsequently, the intracellular substrate accumulation was determined using LC-MS/MS.\nas §4\nFor the screenings, cellular uptake measured in cell lines overexpressing the respective transporter was divided by the uptake measured in an empty vector control cell line to calculate normalised ratios to enable comparisons between test compounds. For studying transport kinetics, the net transport mediated by the overexpressed transporters was calculated by subtracting the cellular uptake measured in an empty vector control cell line from the uptake in cell lines overexpressing the respective transporter. […]"}}, "note": "Changes are numbered by the printed parent chain. Where “and” joins values, the source holds several entries; their conditions need not be identical. Equal entries are not always repeated."}
{"smiles": "C[C@H](N)[C@@H](O)c1ccccc1", "note": "[Cathine, (+)-norpseudoephedrine]", "values": [{"measurement": "ratio of uptake in transporter-transfected cells over empty vector control cells", "setting": "[1]", "result": "4- to 6 fold"}, {"measurement": "excreted unchanged in urine", "setting": "[2]", "result": "46–65%"}, {"measurement": "Km higher for DAT compared with NET", "setting": "[3]", "result": 21, "unit": "fold"}, {"measurement": "vmax higher for DAT compared with NET", "setting": "[3]", "result": 10, "unit": "fold"}, {"measurement": "vmax", "setting": "[4]; OCT2 WT", "result": "570.1 (± 94.3) pmol × mg protein^-1 × min^-1"}, {"measurement": "Km at 2 min", "setting": "[4]; human, pH 7.4", "result": "46 ± 17.3", "unit": "µM"}, {"measurement": "vmax", "setting": "[5]; OCT2 A270S", "result": "505.4 (± 168.1) pmol × mg protein^-1 × min^-1"}, {"measurement": "Km at 2 min", "setting": "[5]; human, pH 7.4", "result": 58.4, "unit": "µM"}, {"measurement": "ratio of uptake in transporter-transfected cells over empty vector control cells", "setting": "[6]", "result": 4, "unit": "fold"}, {"measurement": "ratio of uptake in transporter-transfected cells over empty vector control cells", "setting": "[7]", "result": 7, "unit": "fold"}]}
{"smiles": "C[n+]1ccc(-c2ccccc2)cc1", "note": "[MPP^+, 1-methyl-4-phenylpyridinium]", "values": [{"measurement": "inhibition of mescaline uptake by OCT1", "setting": "[8]", "result": "completely inhibited"}]}
{"smiles": "COc1cc(CCN)cc(OC)c1OC", "note": "[Mescaline]", "values": [{"measurement": "ratio of uptake in transporter-transfected cells over empty vector control cells", "setting": "[9]", "result": "more than 8 fold"}, {"measurement": "ratio of uptake in transporter-transfected cells over empty vector control cells", "setting": "[10]", "result": "not transported much"}, {"measurement": "ratio of uptake in transporter-transfected cells over empty vector control cells", "setting": "[11]", "result": "not transported much"}, {"measurement": "ratio of uptake in transporter-transfected cells over empty vector control cells", "setting": "[12]", "result": "not transported much"}, {"measurement": "vmax", "setting": "[13]", "result": "642 pmol × mg protein^−1 × min^−1 and 642 ± 57 pmol × mg protein^−1 × min^−1"}, {"measurement": "vmax", "setting": "[14]", "result": "391 ± 266 pmol × mg protein^−1 × min^−1"}, {"measurement": "transport activity", "setting": "[15]; OCT1*6", "result": "very low transport activity"}, {"measurement": "Km", "setting": "[15]; OCT1*6 (M420del, C88R)", "result": "Not determinable"}, {"measurement": "vmax", "setting": "[15]; OCT1*6 (M420del, C88R)", "result": "Not determinable"}, {"measurement": "ratio of uptake in transporter-transfected cells over empty vector control cells", "setting": "[6]", "result": "not transported much"}, {"measurement": "ratio of uptake in transporter-transfected cells over empty vector control cells", "setting": "[7]", "result": "not transported much"}]}
